Reference: US20110039762A1, “TARGETED ANTIMICROBIAL MOIETIES” (C3 JIAN, INC., priority 2009, published 2011)
Entries after “also recorded” stand apart in the source; their conditions may differ.

Test system: microorganisms (e.g., bacteria, yeasts, fungi)
Assay: Targeting peptide binding to target microorganisms (Table 3)
Settings: microorganism the targeting peptide binds; binding in aqueous buffers varied by peptide solubility, preferably 1x PBS

Substance	Target(s)
1T-108 (WGPLGPERPLW; Peptide with targeting and/or antimicrobial activity) [Peptide 1T-108]	S. gordonii; also recorded: S. mitis; also recorded: S. mutans; also recorded: S. oralis; also recorded: S. salivarious; also recorded: S. sanguinis
1T-59 (AVGNNLGKDNDSGHRGKKHRKHKHR; Peptide with targeting and/or antimicrobial activity) [Peptide 1T-59]	S. aureus; also recorded: S. epidermidis; also recorded: P. aeruginosa
1T-86 (HRKNPVLGVGRRHRAHNVA; Peptide with targeting and/or antimicrobial activity) [Peptide 1T-86]	S. mitis; also recorded: S. oralis; also recorded: S. salivarious
1T-54 (RWVSCNPSWRIQ; Peptide with targeting and/or antimicrobial activity) [Peptide 1T-54]	S. epidermidis; also recorded: C. xerosis; also recorded: C. striatum; also recorded: P. aeruginosa
1T-18 (YSKTLHFAD; Peptide with targeting and/or antimicrobial activity) [Peptide 1T-18]	S. aureus; also recorded: S. epidermidis; also recorded: C. striatum; also recorded: P. aeruginosa
1T-99 (MKAWLGQ; Peptide with targeting and/or antimicrobial activity) [Peptide 1T-99]	S. gordonii; also recorded: S. mitis; also recorded: S. mutans; also recorded: S. oralis; also recorded: S. sanguinis
1T-15 (DVILRVEAQ; Peptide with targeting and/or antimicrobial activity) [Peptide 1T-15]	S. mutans
1T-35 (EICLTLVFPIRGSYSEAAKFPVPIHIVEDGTVELPK; Peptide with targeting and/or antimicrobial activity) [Peptide 1T-35]	P. aeruginosa
PF-055 (GHVFNGNNKRNL; Peptide with targeting and/or antimicrobial activity)	S. mutans
1T-274 (ETTTEINAIKLHRIKQRSPQGTRRVN; Peptide with targeting and/or antimicrobial activity) [Peptide 1T-274]	F. nucleatum; also recorded: S. mutans; also recorded: S. oralis; also recorded: S. sanguinis
1T-123 (LVRRNAVAGRSDGLAGAEQLDLVRLQGVL; Peptide with targeting and/or antimicrobial activity) [Peptide 1T-123]	S. gordonii
1T-207 (SPLEKYGTGSMTALTFLLGCCLLVLSKKSR; Peptide with targeting and/or antimicrobial activity) [Peptide 1T-207]	F. nucleatum; also recorded: S. sanguinis
1T-77 (EMRISRIILDFLFLRKK; Peptide with targeting and/or antimicrobial activity) [Peptide 1T-77]	S. pneumoniae
1T-44 (DPALADFAAGMRAQVRT; Peptide with targeting and/or antimicrobial activity) [Peptide 1T-44]	S. mutans; also recorded: S. aureus; also recorded: S. epidermidis; also recorded: C. jeikeium; also recorded: C. striatum; also recorded: P. aeruginosa
1T-72 (EPTDGVACKER; Peptide with targeting and/or antimicrobial activity) [Peptide 1T-72]	P. aeruginosa
1T-295 (KYKLKKIIL; Peptide with targeting and/or antimicrobial activity) [Peptide 1T-295]	S. mitis; also recorded: S. salivarious; also recorded: S. sanguinis
1T-40 (QRVSLWSEVEHEFR; Peptide with targeting and/or antimicrobial activity) [Peptide 1T-40]	S. mutans; also recorded: P. aeruginosa
1T-289 (EPSADIYLSAKDTKT; Peptide with targeting and/or antimicrobial activity) [Peptide 1T-289]	F. nucleatum; also recorded: P. gingivalis; also recorded: S. gordonii; also recorded: S. mitis; also recorded: S. mutans; also recorded: S. oralis; also recorded: S. sanguinis
1T-139 (AVAGAAVGALLGNDARSTAVGAAIGGALGAGAGELTKNK; Peptide with targeting and/or antimicrobial activity) [Peptide 1T-139]	A. naeslundii; also recorded: S. gordonii; also recorded: S. mitis; also recorded: S. mutans; also recorded: S. oralis
1T-258 (TINIDDKVLDYLKKINSKAITIDLIGCAS; Peptide with targeting and/or antimicrobial activity) [Peptide 1T-258]	A. naeslundii; also recorded: F. nucleatum; also recorded: P. gingivalis; also recorded: T. denticola; also recorded: S. mitis; also recorded: S. mutans; also recorded: S. oralis
1T-92 (GQDEGQRRAGVGEGQGVDG; Peptide with targeting and/or antimicrobial activity) [Peptide 1T-92]	S. mitis; also recorded: S. mutans

Same assay, conditions: microorganism(s) the targeting peptide binds; binding in aqueous buffers depending on peptide solubility, preferably 1x PBS

Substance	Target(s)
PF-150 (EIQAKGTG; Peptide with targeting and/or antimicrobial activity)	S. epidermidis and MRSA
PF-177 (VTSEPGIAHDIRLLPRAAAFR; Peptide with targeting and/or antimicrobial activity)	M. luteus and MRSA and E. faecalis and C. jeikeium
PF-201 (GCRPASLSDADPDGR; Peptide with targeting and/or antimicrobial activity)	S. epidermidis; also recorded: M. luteus; also recorded: E. coli; also recorded: C. albicans; also recorded: E. faecalis; also recorded: C. jeikeium; also recorded: C. jejuni
PF-238 (RNAVVVTEATFPKYEEEITNYLNRRFGEDWSLKLEKCSVA; Peptide with targeting and/or antimicrobial activity)	S. mutans and S. epidermidis and E. coli and P. aeruginosa and C. albicans and MRSA and S. pneumoniae and E. faecalis
PF-155 (GRYGDDSKERQGRAQ; Peptide with targeting and/or antimicrobial activity)	C. jeikeium
PF-182 (LPATRDKTRVPASVAGAP; Peptide with targeting and/or antimicrobial activity)	S. epidermidis; also recorded: M. luteus; also recorded: E. coli; also recorded: E. faecalis; also recorded: C. jeikeium
PF-348 (ESASAAEWYNPNMNVKKAICMG; Peptide with targeting and/or antimicrobial activity)	B. subtilis; also recorded: E. coli; also recorded: P. aeruginosa; also recorded: C. albicans; also recorded: E. faecalis; also recorded: C. jejuni
PF-288 (IYQLLNIEYSEDD; Peptide with targeting and/or antimicrobial activity)	S. mutans; also recorded: E. coli
PF-194 (MKGNKLATAHEQPVKNSAPPL; Peptide with targeting and/or antimicrobial activity)	C. jeikeium
PF-326 (VIVGNLGAQKEKRNDTPISAKKDIMGDKTVRVRADLHH; Peptide with targeting and/or antimicrobial activity)	S. mutans; also recorded: E. coli
PF-147 (RRPRRRRSGHGQSASAA; Peptide with targeting and/or antimicrobial activity)	S. epidermidis and M. luteus and MRSA
PF-221 (VFDNIDINF; Peptide with targeting and/or antimicrobial activity)	S. epidermidis; also recorded: M. luteus; also recorded: P. aeruginosa
PF-247 (ETAASETH; Peptide with targeting and/or antimicrobial activity)	S. epidermidis

Same assay, conditions: microorganism(s) the targeting peptide binds; peptide binding conducted in aqueous buffers varied by peptide solubility, preferably 1x PBS

Substance	Target(s)
PF-400 (VIAWKFRNKFENSGV; Peptide with targeting and/or antimicrobial activity)	S. epidermidis; also recorded: E. coli; also recorded: S. pneumoniae; also recorded: E. faecalis; also recorded: C. jeikeium

Same assay, conditions: peptide binding in aqueous buffers varied by peptide solubility; preferably 1x PBS

Substance	Target(s) (microorganisms bound by the targeting peptide)
PF-714 (FVVTQRMLRMYKK; Peptide with targeting and/or antimicrobial activity)	L. pneumophila
PF670 (TVIVAPMHSGV; Peptide with targeting and/or antimicrobial activity)	Mycobacteria spp
PF-C285 (FTIIELKKQKIKHGENNKKTAHPLNEPFCARA; Peptide with targeting and/or antimicrobial activity)	A. naeslundii; also recorded: F. nucleatum; also recorded: P. gingivalis; also recorded: S. mutans; also recorded: T. denticola
PF-S015 (IENLERGARRPP; Peptide with targeting and/or antimicrobial activity)	S. epidermidis and MRSA and C. jeikeium
PF-796 (YTQSNIPTAYALMLSNKDSI; Peptide with targeting and/or antimicrobial activity)	S. mutans
PF-C259 (AEIQPHCLSVL; Peptide with targeting and/or antimicrobial activity)	F. nucleatum; also recorded: S. mutans
PF-S023 (MAEDERRALKRRTNRGRTRTRKRITV; Peptide with targeting and/or antimicrobial activity)	S. epidermidis and MRSA
PF-C271 (FFPSYYSIIITYF; Peptide with targeting and/or antimicrobial activity)	A. naeslundii; also recorded: F. nucleatum; also recorded: P. gingivalis; also recorded: S. mutans; also recorded: T. denticola
